The values below come from patent publication US20060052350A1, “Crystalline forms of 1,24(S)-dihydroxy vitamin D2” (priority 2004, published 2006).

A short description of this data set: Stability of the crystalline forms exposed to 100% relative humidity (resulting form identified by powder XRD). The class given is physicochemical. The following applies: 100% relative humidity for about 1 week at room temperature. As for the experimental part: The crystal forms were identified using an Applied Research Laboratory (SCINTAG) powder X-ray diffractometer model X'TRA equipped with a solid state detector. The crystal samples were analyzed using a round aluminum sample holder with zero background and copper radiation of 1.5418 Å.

For `C=C1/C(=C\C=C2/CCCC3(C)C2CCC3[C@H](C)/C=C/[C@@](C)(O)C(C)C)C[C@@H](O)C[C@@H]1O` (stereo partly drawn) [Form B, 1,24(S)-dihydroxy vitamin D2], the “Maintenance of crystal structure (no transformation to another crystalline form) on humidity exposure” value is listed as “maintain their crystal structure”.
